SMILES strings stand for the structures.

One test deals with T1, human recombinant 5-LOX (Homo sapiens, UniProt P09917).
T1 construct: made in house; host or cells: E. coli BL21
T1 sequence (P09917 1-674): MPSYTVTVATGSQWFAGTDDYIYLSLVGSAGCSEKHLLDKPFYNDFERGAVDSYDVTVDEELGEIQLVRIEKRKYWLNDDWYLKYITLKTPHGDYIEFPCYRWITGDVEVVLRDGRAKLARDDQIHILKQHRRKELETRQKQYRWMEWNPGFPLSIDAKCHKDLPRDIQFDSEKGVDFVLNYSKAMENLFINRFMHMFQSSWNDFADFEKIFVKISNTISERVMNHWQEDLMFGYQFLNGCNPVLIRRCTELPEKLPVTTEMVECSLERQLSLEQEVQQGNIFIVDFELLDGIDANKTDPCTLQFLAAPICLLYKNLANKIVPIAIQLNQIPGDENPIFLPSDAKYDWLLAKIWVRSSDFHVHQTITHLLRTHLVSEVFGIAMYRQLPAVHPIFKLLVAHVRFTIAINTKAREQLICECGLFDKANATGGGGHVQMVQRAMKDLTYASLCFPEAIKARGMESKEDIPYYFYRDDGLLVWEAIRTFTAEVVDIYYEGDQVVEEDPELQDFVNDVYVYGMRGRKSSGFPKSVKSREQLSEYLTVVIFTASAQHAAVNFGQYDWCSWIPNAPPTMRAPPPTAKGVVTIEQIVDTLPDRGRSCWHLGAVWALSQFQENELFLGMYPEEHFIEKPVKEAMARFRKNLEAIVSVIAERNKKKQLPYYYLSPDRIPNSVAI
The test can be described thus: Activity assay of isolated human recombinant 5-LOX (cell-free). In kind it is biochemical. The following applies: cell-free assays, not further specified.

The target of test [1] is T2, co-localization of 5-LOX with FLAP (Homo sapiens, UniProt P20292).
T2 construct: endogenous in cells; host or cells: freshly isolated human monocytes (immunofluorescence also in neutrophils)
T2 sequence (P20292 1-161): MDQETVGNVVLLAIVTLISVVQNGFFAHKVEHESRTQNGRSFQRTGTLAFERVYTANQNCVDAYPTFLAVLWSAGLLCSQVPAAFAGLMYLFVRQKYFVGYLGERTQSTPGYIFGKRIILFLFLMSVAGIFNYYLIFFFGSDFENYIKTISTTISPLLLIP
Description: Immunofluorescence microscopy of 5-LOX subcellular redistribution / co-localization with FLAP. In kind it is cell-based. The note with it: human neutrophils or monocytes; diflapolin 1 µM, MK886 0.3 µM, zileuton 3 µM. The protocol: The incubations were stopped by paraformaldehyde fixation (4%, 20 min, RT) and cells were permeabilized using 100% ice-cold acetone (5 min, 4 °C). Blocking with non-immune goat serum (30 min, RT) was performed prior to overnight incubation (4 °C) with primary monoclonal-mouse-anti-5-LOX antibody (1:100 dilution, a generous gift from Dr. D. Steinhilber, Goethe University Frankfurt, Germany) and polyclonal-rabbit-anti-FLAP antibody (5 µg/mL, Abcam, Cambridge, UK). […] Cells were visualized by a Zeiss Axiovert 200 M microscope, and a Plan Neofluar × 100/1.30 Oil (DIC III) objective (Carl Zeiss, Jena, Germany) and image acquisition was performed using an AxioCam MR camera (Carl Zeiss).

The test system of test [2] is HEK293 cells expressing 5-LOX (deficient in FLAP). Description: 5-LOX product formation in HEK293 cells expressing 5-LOX alone. In kind it is cell-based. The note with it: HEK293 expressing 5-LOX, A23187 plus 3 µM AA. The protocol:
HEK293 cells were cultured in monolayers (37 °C, 5% CO2) in DMEM containing FCS (10%), penicillin (100 U/mL) and streptomycin (100 µg/mL). HEK293 cell lines stably expressing 5-LOX with or without FLAP were selected using geneticin (400 µg/mL) with or without hygromycin (200 µg/mL), respectively, as previously described. Transfection of HEK293 was performed using pcDNA3.1 plasmids and lipofectamine according to the manufacturer’s instructions (Invitrogen, Darmstadt, Germany).
For analysis of 5-LOX product formation in HEK293 cells stably expressing 5-LOX with or without FLAP, cells were harvested by trypsinization, pelleted (1,200 rpm, 5 min, 4 °C) and resuspended in PGC buffer to a final concentration of 1 × 10^6 cells/mL. Aliquots were pre-incubated with test compounds or 0.1% DMSO for 15 min, respectively, and stimulated with 2.5 µM A23187 and 3 µM AA.

The target in a further test is T3, recombinant human COX-2 (Homo sapiens, UniProt P35354).
T3 construct: purchased Cayman Chemical (Biomol, Hamburg, Germany)
T3 sequence (P35354 18-604): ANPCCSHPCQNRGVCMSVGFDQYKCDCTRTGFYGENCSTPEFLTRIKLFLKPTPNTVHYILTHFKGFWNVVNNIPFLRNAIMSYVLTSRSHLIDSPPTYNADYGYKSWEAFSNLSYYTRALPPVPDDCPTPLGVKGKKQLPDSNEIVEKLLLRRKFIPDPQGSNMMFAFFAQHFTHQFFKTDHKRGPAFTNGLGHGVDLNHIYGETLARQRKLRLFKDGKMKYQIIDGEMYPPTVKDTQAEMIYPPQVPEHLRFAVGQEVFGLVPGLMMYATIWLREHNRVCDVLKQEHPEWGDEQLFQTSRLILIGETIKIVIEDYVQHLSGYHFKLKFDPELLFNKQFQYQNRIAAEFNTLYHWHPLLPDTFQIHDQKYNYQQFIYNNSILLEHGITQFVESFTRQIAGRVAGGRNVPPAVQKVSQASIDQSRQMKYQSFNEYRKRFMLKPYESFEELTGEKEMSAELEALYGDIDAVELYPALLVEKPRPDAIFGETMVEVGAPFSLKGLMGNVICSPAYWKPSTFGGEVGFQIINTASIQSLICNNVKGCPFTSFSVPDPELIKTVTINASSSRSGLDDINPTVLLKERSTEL
Description: COX-2 activity, cell-free (12-HHT formation). It is filed as biochemical. The following applies: 10 µM. The protocol: COX activity was assayed by using purified ovine COX-1 and recombinant human COX-2, respectively. Enzymes were diluted in Tris buffer (100 mM, pH 8) supplemented with glutathione (5 mM), EDTA (100 µM) and hemoglobin (5 µM) to a final concentration of 50 U/mL (COX-1) or 20 U/mL (COX-2) and pre-incubated with test compounds or vehicle (0.1% DMSO) for 5 min at RT. After 30 sec at 37 °C, reactions were started with 5 µM AA (COX-1) or 2 µM AA (COX-2) and stopped after 5 min at 37 °C by addition of one volume of ice-cold methanol. Solid phase extraction was performed as described above after addition of 200 ng of internal PGB1 standard and COX product formation was determined by analysis of 12-HHT formation as reported before.

The next test has as its system 15-LOX. The test can be described thus: 15-LOX activity (15-HETE) in intact neutrophils. The note with it: A23187 and 20 µM AA, concentration-dependently elevated. In kind it is cell-based, human.

Description for 15-LOX: In order to examine 5-LOX product formation in intact human neutrophils and monocytes, freshly isolated cells were resuspended in PBS buffer containing 0.1% glucose and 1 mM CaCl2 (PGC buffer) to a final cell density of 5 × 10^6 or 2 × 10^6, respectively. […] 5-LOX product formation was stopped by addition of one volume of ice-cold methanol, samples were subjected to solid phase extraction after addition of 200 ng PGB1 as internal standard and 5-LOX products were analyzed by RP-HPLC as described above.
Description for human recombinant 5-LOX: To determine 5-LOX product formation, aliquots (0.5 µg purified 5-LOX in 1 mL PBS plus 1 mM EDTA) were pre-incubated with the test compounds or vehicle (0.1% DMSO) on ice for 15 min and then stimulated with 20 µM AA and CaCl2 (2 mM) for 10 min at 37 °C. The reaction was stopped with one volume of ice-cold methanol and 5-LOX products were analyzed by RP-HPLC as previously described[58]. Briefly, 530 µl acidified PBS and 200 ng of internal PGB1 standard were added and solid phase extraction using C18 RP-columns (100 mg, UCT, Bristol, PA, USA) was performed. After elution with methanol, samples were analyzed by RP-HPLC using a C-18 Radial-PAK column (Waters, Eschborn, Germany). Unless stated otherwise, 5-LOX products include all-trans-isomers of LTB4 and 5-HpETE as well as its corresponding alcohol 5-HETE.

In the case of `CC(C)c1ccc2c(c1)c(SC(C)(C)C)c(CC(C)(C)C(=O)O)n2Cc1ccc(Cl)cc1` [MK886, 3-[1-(4-chlorobenzyl)-3-t-butyl-thio-5-isopropylindol-2-yl]-2,2 - dimethylpropanoic acid], on human recombinant 5-LOX, the half-maximal inhibitory concentration (IC50) was over 10 µM. In addition, the “co-localization of 5-LOX with FLAP” value in test [1] is on record as “neither diflapolin nor the FLAP inhibitor MK886 or the 5-LOX inhibitor zileuton prevented co-localization”.
For `Cc1cc(OCc2nc3ccccc3s2)ccc1NC(=O)Nc1ccc(Cl)c(Cl)c1` [diflapolin, N-[4-(benzothiazol-2-ylmethoxy)-2-methylphenyl]-N′-(3,4-dichlorophenyl)urea], in test [2], the “inhibition of 5-LOX product formation” value is “hardly impaired”. Moreover, at recombinant human COX-2, the “inhibition of COX-2 activity” value is given as “did not significantly inhibit”. Further, in the test on 15-LOX, the 15-HETE formation entry is on record as “up to 200 % of the vehicle control”.

For the origin of these results see article PMC5571211 (Scientific Reports, 2017).
